# Assay results as given in US20230146455A1, “TREATMENT OF INFLAMMATORY DISEASES WITH PEPTIDES AND PHARMACEUTICAL COMPOSITIONS” (Yuyu Pharma, Inc., priority 2020, published 2023).
# “And” between values parts separate entries of the source, which are not always exact repeats. Identical values can stand only once. Where a SMILES comes first, the peptide text is derived from it. [ ]: non-standard residue; d: D form. Hyp = O=C(O)[C@@H]1C[C@@H](O)CN1
# Experiments:
# CCL5/RANTES = assay: Example 9 Luminex, LPS hPBMCs: CCL5/RANTES; format: cell-based, human; conditions: PBMC + LPS(5 ug/ml)
# Protocol: (§1) Treatment Human PBMCs were pretreated with YY-101, YDE-011 and YDE-043 or reference compound; Xiidra® at various concentration (ranging from 1 nM to 100 uM) for 2 h before stimulation. An equal volume of 0.5% DMSO was used as a vehicle control. Then, the cells were treated with LPS at 5 ug/ml. The supernatants from treated cells were harvested at 24 h and placed in a 96 well for Luminex cytokine & chemokine profiling using a Luminex 200 multiplex assay (Luminex; R&D system, USA).
# (§2) The main study arm with triplicate wells per group in a 24-well plate: • 1. Blank • 2. PBMC: 0.5% DMSO • 3. PBMC+LPS (5 ug/ml) • 4. PBMC+YY-101 100 uM • 5. PBMC+YY-101 10 uM • 6. PBMC+YY-101 1 uM • 7. PBMC+YY-101 0.1 uM • 8. PBMC+YY-101 0.01 uM • 9. PBMC+LPS (5 ug/ml)+Xiidra®100 uM • 10. PBMC+LPS (5 ug/ml)+Xiidra® 10 uM • 11. PBMC+LPS (5 ug/ml)+Xiidra® 1 uM • 12. PBMC+LPS (5 ug/ml)+Xiidra®0.1 uM • 13. PBMC+LPS (5 ug/ml)+Xiidra®0.01 uM • 14. PBMC+LPS (5 ug/ml)+Xiidra®0.001 uM • 15. PBMC+LPS (5 ug/ml)+YY-101 100 uM • 16. PBMC+LPS (5 ug/ml)+YY-101 10 uM • 17. PBMC+LPS (5 ug/ml)+YY-101 1 uM • 18. PBMC+LPS (5 ug/ml)+YY-101 0.1 uM • 19. PBMC+LPS (5 ug/ml)+YY-101 0.01 uM • 20. PBMC+LPS (5 ug/ml)+YY-101 0.001 uM • 21. PBMC+LPS (5 ug/ml)+YDE-011 100 uM • 22. PBMC+LPS (5 ug/ml)+YDE-011 10 uM • 23. PBMC+LPS (5 ug/ml)+YDE-011 1 uM • 24. PBMC+LPS (5 ug/ml)+YDE-011 0.1 uM • 25. PBMC+LPS (5 ug/ml)+YDE-011 0.01 uM • 26. PBMC+LPS (5 ug/ml)+YDE-011 0.001 uM • 27. PBMC+LPS (5 ug/ml)+YDE-043 100 uM • 28. PBMC+LPS (5 ug/ml)+YDE-043 10 uM • 29. PBMC+LPS (5 ug/ml)+YDE-043 1 uM • 30. PBMC+LPS (5 ug/ml)+YDE-043 0.1 uM • 31. PBMC+LPS (5 ug/ml)+YDE-043 0.01 uM • 32. PBMC+LPS (5 ug/ml)+YDE-043 0.001 uM
# (§3) Multiplex assay was used to measure 30 cytokines and chemokines. The 1:2, 1:10 and 1:200 diluted cell supernatant and serial dilution of the standard were dispensed into a 96 well plate at 50 ul/well. Then, the pre-mixed cocktail of antibody-coated magnetic beads was dispensed at 50 ul/well and incubated at room temperature for 2 h in a horizontal orbital microplate shaker at 800±500 rpm. The beads were washed using a magnetic device to prevent loss. The biotin-antibody was dispensed in 50 ul of each well and incubated at room temperature for 1 h in a shaker at 800±500 rpm. After washing, streptavidin-PE was added at 50 ul/well and incubated at room temperature for 30 min in a shaker under the same conditions. Finally, after washing, wash buffer (100 ul/well) was added to the plate and incubated in a shaker for 2 min. The Luminex™ 200 setting were set according to the manufacturer's protocol. The data was calculated with a standard five-parameter logistic nonlinear regression analysis of the data (xPonent software 4.2, USA). The levels of cytokine/chemokine are normalized to the live cell counts (1×10^5 cells/mL) and presented as concentrations per mL (pg/mL or ng/mL).
# IL-8 = assay: Example 9 Luminex, LPS hPBMCs: IL-8; format: cell-based, human
# Protocol: as §1, §2, §3
# [1] = test article 0.001 uM, single replicates (1st, 2nd, 3rd)
# [2] = test article 0.01 uM, single replicates (1st, 2nd, 3rd)
# [3] = test article 0.1 uM, single replicates (1st, 2nd, 3rd)
# [4] = test article 1 uM, single replicates (1st, 2nd, 3rd)
# [5] = test article 10 uM, single replicates (1st, 2nd, 3rd)
# [6] = test article 100 uM, single replicates (1st, 2nd, 3rd)
# [7] = PBMC + LPS(5 ug/ml) + test article 0.001 uM, Mean
# [8] = PBMC + LPS(5 ug/ml) + test article 0.001 uM, single replicates (1st, 2nd, 3rd)
# [9] = PBMC + LPS(5 ug/ml) + test article 0.01 uM, Mean
# [10] = PBMC + LPS(5 ug/ml) + test article 0.01 uM, single replicates (1st, 2nd, 3rd)
# [11] = PBMC + LPS(5 ug/ml) + test article 0.1 uM, Mean
# [12] = PBMC + LPS(5 ug/ml) + test article 0.1 uM, single replicates (1st, 2nd, 3rd)
# [13] = PBMC + LPS(5 ug/ml) + test article 1 uM, Mean
# [14] = PBMC + LPS(5 ug/ml) + test article 1 uM, single replicates (1st, 2nd, 3rd)
# [15] = PBMC + LPS(5 ug/ml) + test article 10 uM, Mean
# [16] = PBMC + LPS(5 ug/ml) + test article 10 uM, single replicates (1st, 2nd, 3rd)
# [17] = PBMC + LPS(5 ug/ml) + test article 100 uM, Mean
# [18] = PBMC + LPS(5 ug/ml) + test article 100 uM, single replicates (1st, 2nd, 3rd)
smiles,measurement,setting,value
CC(C)C[C@H](NC(=O)[C@H](CCC(N)=O)NC(=O)CNC(=O)[C@@H]1C[C@@H](O)CN1)C(=O)NCC(=O)O [YDE-043] (H-[Hyp]GQLG-OH; N-terminus and C-terminus assumed),Concentration (CCL5/RANTES),"CCL5/RANTES; test article 0.001 uM, Mean",207.1 pg/mL
same,MFI (Bead name: CCL5/RANTES),"CCL5/RANTES; test article 0.001 uM, Mean",469.3
same,conc/live cell (CCL5/RANTES),"CCL5/RANTES; test article 0.001 uM, Mean",42.0 pg/10^5
same,Concentration (CCL5/RANTES),CCL5/RANTES; [1],199.1 pg/mL and 216.5 pg/mL and 205.7 pg/mL
same,MFI (Bead name: CCL5/RANTES),CCL5/RANTES; [1],445.5 and 497.5 and 465.0
same,conc/live cell (CCL5/RANTES),CCL5/RANTES; [1],45.3 pg/10^5 and 36.1 pg/10^5 and 44.7 pg/10^5
same,Concentration (CCL5/RANTES),"CCL5/RANTES; test article 0.01 uM, Mean",214.6 pg/mL
same,MFI (Bead name: CCL5/RANTES),"CCL5/RANTES; test article 0.01 uM, Mean",491.8
same,conc/live cell (CCL5/RANTES),"CCL5/RANTES; test article 0.01 uM, Mean",41.1 pg/10^5
same,Concentration (CCL5/RANTES),CCL5/RANTES; [2],219.3 pg/mL and 212.9 pg/mL and 211.7 pg/mL
same,MFI (Bead name: CCL5/RANTES),CCL5/RANTES; [2],506.0 and 486.5 and 483.0
same,conc/live cell (CCL5/RANTES),CCL5/RANTES; [2],48.7 pg/10^5 and 32.3 pg/10^5 and 42.3 pg/10^5
same,Concentration (CCL5/RANTES),"CCL5/RANTES; test article 0.1 uM, Mean",215.9 pg/mL
same,MFI (Bead name: CCL5/RANTES),"CCL5/RANTES; test article 0.1 uM, Mean",495.8
same,conc/live cell (CCL5/RANTES),"CCL5/RANTES; test article 0.1 uM, Mean",40.1 pg/10^5
same,Concentration (CCL5/RANTES),CCL5/RANTES; [3],220.2 pg/mL and 200.1 pg/mL and 227.4 pg/mL
same,MFI (Bead name: CCL5/RANTES),CCL5/RANTES; [3],508.5 and 448.5 and 530.5
same,conc/live cell (CCL5/RANTES),CCL5/RANTES; [3],44.0 pg/10^5 and 35.7 pg/10^5 and 40.6 pg/10^5
same,Concentration (CCL5/RANTES),"CCL5/RANTES; test article 1 uM, Mean",214.4 pg/mL
same,MFI (Bead name: CCL5/RANTES),"CCL5/RANTES; test article 1 uM, Mean",491.2
same,conc/live cell (CCL5/RANTES),"CCL5/RANTES; test article 1 uM, Mean",40.7 pg/10^5
same,Concentration (CCL5/RANTES),CCL5/RANTES; [4],218.2 pg/mL and 212.9 pg/mL and 212.2 pg/mL
same,MFI (Bead name: CCL5/RANTES),CCL5/RANTES; [4],502.5 and 486.5 and 484.5
same,conc/live cell (CCL5/RANTES),CCL5/RANTES; [4],37.6 pg/10^5 and 44.3 pg/10^5 and 40.0 pg/10^5
same,Concentration (CCL5/RANTES),"CCL5/RANTES; test article 10 uM, Mean",202.8 pg/mL
same,MFI (Bead name: CCL5/RANTES),"CCL5/RANTES; test article 10 uM, Mean",456.5
same,conc/live cell (CCL5/RANTES),"CCL5/RANTES; test article 10 uM, Mean",37.6 pg/10^5
same,Concentration (CCL5/RANTES),CCL5/RANTES; [5],212.9 pg/mL and 193.7 pg/mL and 201.8 pg/mL
same,MFI (Bead name: CCL5/RANTES),CCL5/RANTES; [5],486.5 and 429.5 and 453.5
same,conc/live cell (CCL5/RANTES),CCL5/RANTES; [5],40.9 pg/10^5 and 35.9 pg/10^5 and 36.0 pg/10^5
same,Concentration (CCL5/RANTES),"CCL5/RANTES; test article 100 uM, Mean",163.0 pg/mL
same,MFI (Bead name: CCL5/RANTES),"CCL5/RANTES; test article 100 uM, Mean",341.8
same,conc/live cell (CCL5/RANTES),"CCL5/RANTES; test article 100 uM, Mean",25.9 pg/10^5
same,Concentration (CCL5/RANTES),CCL5/RANTES; [6],167.0 pg/mL and 159.0 pg/mL
same,MFI (Bead name: CCL5/RANTES),CCL5/RANTES; [6],353.0 and 330.5
same,conc/live cell (CCL5/RANTES),CCL5/RANTES; [6],26.9 pg/10^5 and 24.8 pg/10^5
same,Concentration,IL-8; [7],27612.8 pg/mL
same,conc/live cell,IL-8; [7],5610.5 pg/10^5
same,Concentration,IL-8; [8],25319.8 pg/mL and 28134.2 pg/mL and 29384.5 pg/mL
same,conc/live cell,IL-8; [8],5754.5 pg/10^5 and 4689.0 pg/10^5 and 6387.9 pg/10^5
same,Concentration,IL-8; [9],27805.6 pg/mL
same,conc/live cell,IL-8; [9],5331.3 pg/10^5
same,Concentration,IL-8; [10],28010.8 pg/mL and 27056.0 pg/mL and 28350.1 pg/mL
same,conc/live cell,IL-8; [10],6224.6 pg/10^5 and 4099.4 pg/10^5 and 5670.0 pg/10^5
same,Concentration,IL-8; [11],26729.6 pg/mL
same,conc/live cell,IL-8; [11],4969.6 pg/10^5
same,Concentration,IL-8; [12],27502.4 pg/mL and 24737.2 pg/mL and 27949.2 pg/mL
same,conc/live cell,IL-8; [12],5500.5 pg/10^5 and 4417.4 pg/10^5 and 4990.9 pg/10^5
same,Concentration,IL-8; [13],26441.2 pg/mL
same,conc/live cell,IL-8; [13],4990.4 pg/10^5
same,Concentration,IL-8; [14],27517.8 pg/mL and 23008.1 pg/mL and 28797.5 pg/mL
same,conc/live cell,IL-8; [14],4744.4 pg/10^5 and 4793.4 pg/10^5 and 5433.5 pg/10^5
same,Concentration,IL-8; [15],29354.3 pg/mL
same,conc/live cell,IL-8; [15],5450.9 pg/10^5
same,Concentration,IL-8; [16],28998.3 pg/mL and 34618.6 pg/mL and 24446.1 pg/mL
same,conc/live cell,IL-8; [16],5576.6 pg/10^5 and 6410.8 pg/10^5 and 4365.4 pg/10^5
same,Concentration,IL-8; [17],25505.9 pg/mL
same,conc/live cell,IL-8; [17],4053.3 pg/10^5
same,Concentration,IL-8; [18],26994.4 pg/mL and 24017.4 pg/mL
same,conc/live cell,IL-8; [18],4353.9 pg/10^5 and 3752.7 pg/10^5
